Test results from patent US20240174697A1, “PH-ACTIVABLE FLUORESCENT PROBES FOR TARGETING CELL ORGANELLES” (Purdue Research Foundation, priority 2021, published 2024).

Key:
[1] = Absorption and fluorescence spectra at different pH solutions, pKa; format: physicochemical; settings: for pH at which high fluorescence is shown: pH buffer solutions; for emission maximum: excitation 480 nm; for emission maximum / absorption maximum: pH solutions of phosphate buffer, 1% DMSO; for pKa: PBS buffer at varying pH, 1% (v/v) DMSO, probe 10 μM, room temperature
Protocol: Spectrum recorded at room temperature in PBS buffer at varying pH with 1% (v/v) of DMSO, in all cases probe concentration=10 μM.
Next, we investigated the absorption and fluorescent properties of LysoShine 1, LysoShine 2, and MitoShine (FIG. 2). The LysoShine 1 in different pH solutions of phosphate buffer (1% DMSO in 1M PBS) has an absorption centered around 500 nm and emission maximum at 505 nm with 480 nm excitation. […] We tested the mitochondrial targeting property of MitoShine (max. absorption 505 nm, max. emission 535 nm, excitation 480 nm). […] We also tested the photophysical property of the important synthetic intermediate compound 10 (absorption maximum 505 nm, max, emission 510 nm at excitation 480 nm).

[2] = Solubility in aqueous medium / pH solutions; format: physicochemical; settings: for solubility upon addition of pH solutions: final DMSO concentration 1%
BV2 microglia [3] = assay: LDH cytotoxicity assay on BV2 microglia; format: cell-based, mouse; settings: for cytotoxicity (LDH release): 2 hour, any tested doses (1, 5, 10 μM), BV2
Protocol: The dried fluorescent probes powders were resuspended in cell grade DMSO to prepare 5 mM stock solutions. This stock was used to make a 1, 5, or 10 μM dilution of the probe in cell culture media. The diluted probe solutions were filtered through 0.22 µm filters before adding to the cells.
The cytotoxicity of the fluorescent probes was determined using the Invitrogen™ CyQUANT™ LDH Cytotoxicity Assay kit which measures the release of Lactate dehydrogenase (LDH) from the dead and dying cells. The assay was performed per the manufacturer's protocol. Briefly, BV2 cells (5000 cells/100 μL/well) were seeded in a 96 well plate and cultured for 24 hours at 37° C. in a 5% CO2 incubator. After 24 hours, the media was removed, and the cells were treated with 1, 5, or 10 μM of the probes for 2 or 24 hours of incubation. Three additional wells were treated with the given lysis buffer for 45 minutes (positive control). After the corresponding incubation period, the total LDH release was measured using a fluorescent plate reader. The cells without any probe treatment correspond to spontaneous LDH release and were taken as negative control and the cells treated with the lysis buffer correspond to maximum LDH release. The percentage cytotoxicity of the probes was determined as follows: […]

BV2 microglia [4] = assay: Confocal imaging, localization of probes in BV2 microglia; format: cell-based, mouse; settings: co-staining LysoTracker Red DND-99 / DAPI
Protocol: BV2 mouse microglia cells were generously gifted by Dr. Linda J. Van Eldik (University of Kentucky, USA). The BV-2 cell line was developed in the lab of Dr. Elisabetta Blasi at the University of Perugia, Italy. Cells were maintained at 37° C. and 5% CO2 in DMEM/Hams F-12 50/50 Mix supplemented with 10% Fetal Bovine Serum (FBS), 1% L-Glutamine, and 1% Penicillin/Streptomycin. For imaging experiments, 70,000 cells/2 mL/well were seeded on glass coverslips (Corning #12-553-450) in 6-well plates (Corning #08-772-1B). For flow cytometry experiments, 20,000 cells/0.5 mL were seeded in 24-well plates (Corning #3526).
(§1) The localization of the fluorescent probes was visualized using confocal microscopy. The cells were incubated with 10 μM probe for 2 hours and then the media was aspirated. The cells were then incubated with 100 nM LysoTracker (1 mM stock from Thermo #L7528) or with 0.5x MitoLite (1000-fold dilution from 500x stock of AAT Bioquest #22678) for 1.5 hours. The media was aspirated, and the cells were fixed with 4% paraformaldehyde for 10 mins followed by nuclear staining with 1 μM/mL DAPI for 5 mins. For BV2 microglia grown on glass coverslips, the coverslips were removed from the wells and transferred to glass slides with a drop of anti-fade reagent (Thermo Fisher Scientific #P36930). For primary mouse microglia grown in 35 mm glass-bottom dishes, the cells were treated with a few drops of the anti-fade reagent and taken for imaging. The images were captured on a Zeiss LSM 880 Upright Confocal microscope equipped with Plan-Apochromat 20x/0.8 objective.

BV2 microglia [5] = assay: Cellular uptake of the fluorescent probes; format: in vitro ADME, mouse; settings: BV2 microglia (FIG. 7)
Protocol: FIG. 7 describes percent uptake efficiency of the fluorescent probes in BV2 microglia. Cellular uptake of the probe at different concentrations after two hours of incubation. The % uptake efficiency was determined as the percentage of probe taken up by cells out of the total amount of probe in the initial incubation solution. Bars depict n=3 data with SD.
Cellular uptake of the florescent probes was determined in-vitro as following: BV2 cells (20,000 cells/well) were seeded in a 96 well plate and cultured overnight at 37° C. in a 5% CO2 incubator. Next day, the media was removed, and the cells were treated with 1, 5, or 10 μM of the probes for 2 hours. After incubation, the supernatant was collected, and the absorbance was recorded at the respective absorbance maxima of the probe. This was compared with absorbance of the probe in media without cells. The percent cellular uptake was calculated as percentage of […]:
% Uptake Efficiency=1-[Asupernatant×100/Aprobe]

primary mouse microglia [6] = assay: Flow cytometry analysis of probe fluorescence in live cells; format: cell-based; settings: 10 μM, 2 hours
Description: FIGS. 3A-3E. […] Modal corresponds to a percentage of the maximum count. […] US Ctrl is unstained control. Gating strategy and flow plots with commercial dyes in supporting information.
A detailed protocol for the isolation and culture of primary microglia from adult mouse brains is previously described^2. Briefly, CD11^+ primary microglia were isolated from adult C57BL/6 mice aged 5-7 months of age (both male and female sexes) and cultured as follows. Mice were euthanized with CO2 following the PACUC guidelines, perfused brains were removed and cut into small pieces before homogenizing them in DPBS++with 0.4% DNase-I on the tissue dissociator at 37° C. After filtering the cells through a 70 μm filter, myelin was removed two times, first using gradient centrifugation with Percoll PLUS reagent followed by the use of myelin removal beads on the magnetic column separators. After myelin removal, CD11^+ cells were selected from the single cell suspension using the CD11^+ beads as per the manufacturer's instructions. […]
Primary mouse microglia were treated with 1, 5, or 10 μM fluorescent probes for 2 hours for the cells to uptake the probe. […] Around 10-20 thousand cells were gated from the live cells in order to analyze the cellular fluorescence signal corresponding to the LysoShine/Lysotracker or Mitoshine/MitoLite probes.

primary mouse microglia [7] = assay: Confocal imaging, localization of probes in primary microglia; format: cell-based; settings: 10 μM probe 2 hours, co-staining LysoTracker / MitoLite / DAPI
Protocol: A detailed protocol for the isolation and culture of primary microglia from adult mouse brains is previously described^2. Briefly, CD11^+ primary microglia were isolated from adult C57BL/6 mice aged 5-7 months of age (both male and female sexes) and cultured as follows. Mice were euthanized with CO2 following the PACUC guidelines, perfused brains were removed and cut into small pieces before homogenizing them in DPBS++with 0.4% DNase-I on the tissue dissociator at 37° C. After filtering the cells through a 70 μm filter, myelin was removed two times, first using gradient centrifugation with Percoll PLUS reagent followed by the use of myelin removal beads on the magnetic column separators. After myelin removal, CD11^+ cells were selected from the single cell suspension using the CD11^+ beads as per the manufacturer's instructions. The CD11^+ cells were finally resuspended in microglia growth media, further diluted in TIC (TGF-β, IL-34, and cholesterol containing) media containing 2% FBS before seeding 0.1×10^6 cells/500 μL/well of a 24-well plate. The cells were maintained at 37° C. and 10% CO2 with half-media change every other day until the day of compound treatment (around 12-14 div). For confocal imaging experiments, around 50,000 cells/2 mL cells were sub-cultured at the center of 35 mm glass-bottom imaging dishes (FluoroDish™ #FD35).
as §1, with “For primary mouse microglia grown in 35 mm glass-bottom dishes, the cells were treated with a few drops of the anti-fade reagent and taken for imaging. The images were captured on a Zeiss LSM 880 Upright Confocal microscope equipped with Plan-Apochromat 20x/0.8 objective.” left out

| SMILES | pH at which high fluorescence is shown [1] | fluorescence spectrum in pH buffers ([1]; pH buffers, solubility affected) | solubility in aqueous medium ([2]; aqueous medium) | cytotoxicity to BV2 cells (BV2 microglia [3]; BV2 cells) | localization of the probe within cell organelles (BV2 microglia [4]) | emission maximum [1] | absorption maximum [1] | cell permeability (BV2 microglia [5]) | fluorescent intensity within the cells (primary mouse microglia [6]) | cytotoxicity (LDH release) (BV2 microglia [3]) | localization of the probe within cell organelles (primary mouse microglia [7]) | pKa [1] | solubility upon addition of pH solutions [2] |
| --- | --- | --- | --- | --- | --- | --- | --- | --- | --- | --- | --- | --- | --- |
| CCOC(=O)C1=C(C)C2=C(c3ccc(N(C)C)cc3)c3c(C)c(C(=O)OCC)c(C)n3[B-](F)(F)[N+]2=C1C [Compound 5, Diethyl 10-(4-(dimethylamino)phenyl)-5,5-difluoro-1,3,7,9-tetramethyl-5H-4λ^4, 5λ^4-dipyrrolo[1,2-c:2′,1′-f][1,3,2]diazaborinine-2,8-dicarboxylate] | ≤ 2.0 |  |  |  |  |  |  |  |  |  |  |  |  |
| CCOC(=O)C1=C(C)C2=C(c3ccc(N(C)C)cc3)c3c(C)c(C(=O)OCC)c(C=Cc4ccc(O)cc4)n3[B-](F)(F)[N+]2=C1C [Compound 6a, Diethyl (E)-10-(4-(dimethylamino)phenyl)-5,5-difluoro-3-(4-hydroxystyryl)-1,7,9-trimethyl-5H-414,514-dipyrrolo[1,2-c:2′,1′-f][1,3,2]diazaborinine-2,8-dicarboxylate] |  | did not generate a fluorescence spectrum | sparingly soluble |  |  |  |  |  |  |  |  |  |  |
| CCOC(=O)C1=C(C)C2=C(c3ccc(NC(=O)CBr)cc3)c3c(C)c(C(=O)OCC)c(C)n3[B-](F)(F)[N+]2=C1C [Compound 10, Diethyl 10-(4-(2-bromoacetamido)phenyl)-5,5-difluoro-1,3,7,9-tetramethyl-5H-414,514-dipyrrolo[1,2-c:2′,1′-f][1,3,2]diazaborinine-2,8-dicarboxylate] | less than 3 |  |  | not cytotoxic | colocalized with nuclei staining dye DAPI | 510 nm | 505 nm | cell permeable |  |  |  |  |  |
| CCOC(=O)C1=C(C)C2=C(c3ccc(NC(=O)CN(CC)CC)cc3)c3c(C)c(C(=O)OCC)c(C)n3[B-](F)(F)[N+]2=C1C [LysoShine 1, Diethyl 10-(4-(2-(diethylamino)acetamido)phenyl)-5,5-difluoro-1,3,7,9-tetramethyl-5H-4λ^4, 5λ^4-dipyrrolo[1,2-c:2′, 1′-f][1,3,2]diazaborinine-2,8-dicarboxylate] | 4 |  |  |  | co-colocalization | 505 nm | around 500 nm |  | higher fluorescent intensity than LysoShine 2 | did not show any cytotoxicity | co-localized with the LysoTracker dye within the acidic lysosomes | 5.4 | maintains its solubility |
| CCOC(=O)C1=C(C)C2=C(c3ccc(NC(=O)CNCCN4CCOCC4)cc3)c3c(C)c(C(=O)OCC)c(C)n3[B-](F)(F)[N+]2=C1C [LysoShine 2, Diethyl 5,5-difluoro-1,3,7,9-tetramethyl-10-(4-(2-((2-morpholinoethyl)amino)acetamido)phenyl)-5H-4λ^4, 5λ^4-dipyrrolo[1,2-c:2′,1′-f][1,3,2]diaza-borinine-2,8-dicarboxylate] | less than 6 |  |  |  | co-colocalization | 512 nm | 500 nm |  |  | did not show any cytotoxicity | co-localized with the LysoTracker dye within the acidic lysosomes | 6.0 | maintains its solubility |
